{"source": "patent US20040253692A1", "about": "“Streptomyces sp. CJPV975652 capable of converting compactin to pravastatin and method for producing pravastatin using the same” (priority 2003, published 2004)", "origin": "cited, not measured here", "key": {"[1]": {"conditions": "daily dosage of 5-10 mg for 3 months"}, "[2]": {"target": "T1, HMG-CoA reductase (Homo sapiens, UniProt P04035)", "T1 sequence (P04035 1-888)": "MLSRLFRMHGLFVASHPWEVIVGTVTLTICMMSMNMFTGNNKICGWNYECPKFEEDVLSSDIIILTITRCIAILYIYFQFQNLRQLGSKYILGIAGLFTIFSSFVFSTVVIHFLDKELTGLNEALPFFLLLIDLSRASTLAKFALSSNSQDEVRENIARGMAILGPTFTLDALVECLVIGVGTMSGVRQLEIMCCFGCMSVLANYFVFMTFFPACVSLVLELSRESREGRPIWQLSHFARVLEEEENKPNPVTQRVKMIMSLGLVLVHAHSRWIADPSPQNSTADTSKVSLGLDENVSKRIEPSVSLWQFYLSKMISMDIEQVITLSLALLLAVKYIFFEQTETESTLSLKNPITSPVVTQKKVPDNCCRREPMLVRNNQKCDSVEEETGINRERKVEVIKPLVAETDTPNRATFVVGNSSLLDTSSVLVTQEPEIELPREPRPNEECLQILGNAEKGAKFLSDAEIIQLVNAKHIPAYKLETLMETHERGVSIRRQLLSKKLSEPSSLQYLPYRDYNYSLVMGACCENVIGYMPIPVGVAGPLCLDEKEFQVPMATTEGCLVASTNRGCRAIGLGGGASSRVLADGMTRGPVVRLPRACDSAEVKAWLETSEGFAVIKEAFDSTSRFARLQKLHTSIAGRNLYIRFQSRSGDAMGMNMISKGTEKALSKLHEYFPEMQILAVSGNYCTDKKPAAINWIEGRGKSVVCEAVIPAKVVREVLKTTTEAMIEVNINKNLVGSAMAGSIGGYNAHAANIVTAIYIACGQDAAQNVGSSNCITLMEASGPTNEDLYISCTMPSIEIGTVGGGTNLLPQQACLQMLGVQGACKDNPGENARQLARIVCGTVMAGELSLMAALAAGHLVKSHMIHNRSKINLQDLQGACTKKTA", "conditions": "compared with compactin"}}}
{"smiles": "CC[C@H](C)C(=O)O[C@H]1C[C@H](O)C=C2C=C[C@H](C)[C@H](CC[C@@H](O)C[C@@H](O)CC(=O)O)[C@H]21", "note": "[pravastatin]", "values": [{"measurement": "reduction of LDL-cholesterol level", "setting": "[1]", "value": "20-40%"}, {"measurement": "reduction of total cholesterol level", "setting": "[1]", "value": "20-40%"}, {"measurement": "effectiveness as a HMG-CoA reductase inhibitor", "setting": "[2]", "value": "more effective than compactin"}]}
